Experimental findings from PMC9506633, “Design, synthesis, anti-proliferative evaluation, docking, and MD simulations studies of new thiazolidine-2,4-diones targeting VEGFR-2 and apoptosis pathway” (PLoS ONE, 2022) are described below.

SMILES strings stand for the structures. “Also recorded” adds a separate entry of the source.

Data set [1] can be described thus: Safety assay: cytotoxicity against Vero non-cancer cell line. As to conditions: African green monkey, Vero cells (non-cancer cell line); Vero normal cell line. It counts as cell-based. Here is the method:
In this work, the safety pattern of the synthesized derivatives 10a, b and 14a-c was also evaluated by testing their in vitro cytotoxicity against Vero non-cancer cell line using the MTT assay protocol.
Section in S1 File.
Mammalian cell lines culture […]
The cultured media were supplemented with 200 mM L-glutamine, 10.0% fetal bovine serum (Lonza), and 1.0% penicillin/streptomycin. Cells were seeded into 25.0 cm tissue culture flasks and incubated at 37 ◦C in a 5.0% CO 2 incubator for 24 h or till confluency.
(§1) The safety profiles of the tested compounds were checked on one non-cancerous cell line (Vero) to […]
of 100.0 µl of 6×10^4 cell/ml cells was seeded in to each well of a 96-well plate and then the plates were incubated at 37 °C in a humidified 5.0% CO2 incubator for 24 h. At the end of incubation period, the exhausted medium was replaced with 100.0 µl of different concentrations of the designated treatment (prepared in RPMI medium starting from 1.0 mM). The inoculated plates were incubated at the same growth conditions for another 24 h. At the end of incubation, cellular viability was assessed using MTS assay kit (Promega) according to the manual instruction. […]

In another data set the test system is MDA-mb-231. Put plainly: MTT anti-proliferative assay, MDA-mb-231. It counts as cell-based. How it is done:
(§2) The cytotoxicity effects of the synthesized candidates were evaluated against A549, Caco-2, HepG2, and MDA-mb-231 cell lines. MTT assay method was applied using the sub-IC50 concentrations of each compound as the treatment dose. Doxorubicin was used as a reference molecule. […] Also, it was noticed that Caco-2 was the most sensitive cell line.
(§3) The synthesized compounds were evaluated for their anti-proliferative activities against A549, Caco-2, HepG2, and MDA-mb-231 cell lines using the MTT assay protocol as described in S.1.2. Section in S1 File.
(§4) Mammalian cell lines culture
(§5) CaCo-2, and A549 cell lines were cultured on DMEM media, meanwhile MDA-MB-231 and hepG-2 cell line were cultured on RBMI media. The cultured media were supplemented with 200 mM L-glutamine, 10.0% fetal bovine serum (Lonza), and 1.0% penicillin/streptomycin. Cells were seeded into 25.0 cm tissue culture flasks and incubated at 37 ◦C in a 5.0% CO 2 incubator for 24 h or till confluency.
as §1
(§6) of 100.0 µl of 6×10^4 cell/ml cells was seeded in to each well of a 96-well plate and then the plates were incubated at 37 °C in a humidified 5.0% CO2 incubator for 24 h. At the end of incubation period, the exhausted medium was replaced with 100.0 µl of different concentrations of the designated treatment (prepared in RPMI medium starting from 1.0 mM). The inoculated plates were incubated at the same growth conditions for another 24 h. At the end of incubation, cellular viability was assessed using MTS assay kit (Promega) according to the manual instruction.
(§7) S.1.2. In-vitro anticancer activity
(§8) Anticancer activities of the tested compounds against CaCo-2, MDA-MB-231, and hepG-2 cell lines were quantified using MTS assay kit (Promega) as described by the Manufacturer. […]
In general terms: Tetrazolium assays rely on reduction of a dye to a coloured formazan, in cell work by metabolically active cells.

The next data set concerns A549. As to the kind of experiment: MTT anti-proliferative assay, A549. It is filed as cell-based. How it is done: as §2, §3, §4, §5, §1, §6, §7, §8
A further data set relates to TGF. Put plainly: RT-qPCR gene expression in Caco-2, TGF. It is filed as cell-based. As to conditions: Caco-2, 1.5 μM, compared to control cells. An excerpt: (§9) The molecular anticancer mode of action of 14a was investigated by screening their ability to control the gene expression levels of Bcl2, Bcl-xl, TGF and Survivin genes as reported in S.1.6. Section in S1 File.
(§10) S.1.4. Selectivity index (SI) […]
(§11) S.1.6. Gene expression pattern alt ernation of cancer cell after 1 4a treatment The molecular anticancer mode of action of 14a was investigated by screening their ability to affect the gene expression levels of Bcl2, Bcl -xl, TGF and Survivin genes using specific forward and reverse primers and RTq-PCR technique (Table 1) in CaCo-2 cells (chosen as the most sensitive cancer cell line). After cellular treatment, CaCo-2 cell line was cultured into 12 well plates (6×10^3 cell/ml) for 24 h. with the sub-IC50 concentration of 14a. After treatment, total RNA extraction was performed using RNA extraction kit (Qiagen, Germany). Then, 1 ug of the obtained RNA was used to synthesiz cDNA using cDNA synthesis kit (Promega Corp., Madison, WI) as recommended by the manufacturer. Simultaneously, GAPDH forward and reverse primers (Table 1) were used to amplify the house keeping gene as internal control for standardization of PCR products. The RTq-PCR was done using SYBR Green dye (QuantiTect SYBR Green PCR Kits) and Light Cycler fluorimeter (Bio-RAD S1000 Tm thermal cycler). […]
For orientation: Real-time PCR tracks product formation cycle by cycle.

A further data set concerns Bcl-xl. As to the kind of experiment: RT-qPCR gene expression in Caco-2, Bcl-xl. It is filed as cell-based. The note with it: Caco-2, 1.5 μM, compared to control cells.
Excerpt: as §9, §10, §11

The subject of the next data set is Caco-2 cells. As to the kind of experiment: In vitro scratch (wound healing, migration) assay. It counts as cell-based. The note with it: Caco-2, 1 μM. How it is done: The in vitro scratch assay[38] was used to assess the prospective of compound 14a to inhibit the ability of Caco-2 cells to migrate and heal. The basic idea behind this test is to create a scratch in a cancer cell line monolayer, measure the diameter at the start time and at regular intervals to investigate the potential of the cancer cell to migrate and heal. The findings of the treated cell line are then compared to the untreated cell line.
Cell Migration assay was conducted according to the reported protocol as described [59]in S.1.5. Section in S1 File.
S.1.4. Selectivity index (SI)
The selectivity index values of the tested compounds on cancer cells were calculated as described by Koch et al., with slight modifications; SI=IC50nc/IC50cc, where IC50nc: the IC50 value of the tested compound on normal cells and IC 50cc: IC50 of the tested compound on cancer cell line .
S.1.5. Wound healing assay (Migration assay)
CaCo-2 cells were grown to 95.0% confluency in a complete DMEM medium and then the wounds were formed using a plastic tip. […] After incubation at 37°C and 5.0% CO2 for 24h, the cells were washed with PBS and the wounds distance was determined as the scratch width of the treated and untreated groups using […]
S.1.6. […] The RTq-PCR was done using SYBR Green dye (QuantiTect SYBR Green PCR Kits) and Light Cycler fluorimeter (Bio-RAD S1000 Tm thermal cycler). […]

The next data set has as its system HepG2. As to the kind of experiment: MTT anti-proliferative assay, HepG2. It is filed as cell-based. How it is done:
as §2, §3, §4, §5, §1, §6, §7, §8

A further data set concerns Survivin. Put plainly: RT-qPCR gene expression in Caco-2, Survivin. As to conditions: Caco-2, 1.5 μM, compared to control cells. It is filed as cell-based.
Excerpt: as §9, §10, §11

In a further data set the target is T1, VEGFR-2 (Homo sapiens, UniProt P35968).
T1 construct: purchased
Put plainly: In vitro VEGFR-2 inhibition (VEGFR-2 ELISA kit). It counts as biochemical. Here is the method:
Compounds 10a, b and 14a-c were evaluated for their VEGFR-2inhibitory activity.
VEGFR-2 ELISA kit was used in this test as described in S.1.3. Section in S1 File. […]
S.1.3. In vitro VEGFR-2 kinase assay
All the synthesized compounds were tested for its inhibitory activity against VEGFR-2. Human VEGFR-2 ELISA kit (Enzyme-Linked Immunosorbent Assay) was utilized in this test. At first, specific antibody for VEGFR-2 was seeded on a 96-well plate and 100 μL of the standard solution or the tested compound was added, all were incubated at room temperature for 2.5 h. Then washed, 100 μL of the prepared biotin antibody was added, then incubated at room temperature for additional 1 h. and washed. Then, 100 μL of streptavidin solution was added and incubated for 45 min. at room temperature. Washed again, 100 μL of TMB Substrate reagent was added and incubated for 30 min. at room temperature. 50 μL of the stop solution was added, then read at 450 nm immediately. The standard curve was drawn, concentrations on the X-axis and the absorbance

A short description of data set [2]: MTT anti-proliferative assay, Caco-2. It is filed as cell-based. The note with it: African green monkey (Vero); human (Caco-2); SI = Cytotoxicity against Vero cells / Cytotoxicity against Caco-2 cell line; read-out: Selectivity index (Caco-2). Here is the method:
as §2, §3, §4, §5, §1, §6, §7, §8

Another data set concerns Caco-2. As to the kind of experiment: MTT anti-proliferative assay, Caco-2. It is filed as cell-based. As to conditions: Homo sapiens; Caco-2 cell line, MTT; read-out: Anti-proliferative activity (IC50 μM) Caco2. Here is the method: as §2, §3, §4, §5, §1, §6, §7, §8
In a further data set the test system is Bcl-2. As to the kind of experiment: RT-qPCR gene expression in Caco-2, Bcl-2. As to conditions: Caco-2, 1.5 μM, compared to control cells. It counts as cell-based.
Excerpt: as §9, §10, §11

Setting [3] is: dose-response curve fit, raw data S.5.

T1 sequence (P35968 20-1356): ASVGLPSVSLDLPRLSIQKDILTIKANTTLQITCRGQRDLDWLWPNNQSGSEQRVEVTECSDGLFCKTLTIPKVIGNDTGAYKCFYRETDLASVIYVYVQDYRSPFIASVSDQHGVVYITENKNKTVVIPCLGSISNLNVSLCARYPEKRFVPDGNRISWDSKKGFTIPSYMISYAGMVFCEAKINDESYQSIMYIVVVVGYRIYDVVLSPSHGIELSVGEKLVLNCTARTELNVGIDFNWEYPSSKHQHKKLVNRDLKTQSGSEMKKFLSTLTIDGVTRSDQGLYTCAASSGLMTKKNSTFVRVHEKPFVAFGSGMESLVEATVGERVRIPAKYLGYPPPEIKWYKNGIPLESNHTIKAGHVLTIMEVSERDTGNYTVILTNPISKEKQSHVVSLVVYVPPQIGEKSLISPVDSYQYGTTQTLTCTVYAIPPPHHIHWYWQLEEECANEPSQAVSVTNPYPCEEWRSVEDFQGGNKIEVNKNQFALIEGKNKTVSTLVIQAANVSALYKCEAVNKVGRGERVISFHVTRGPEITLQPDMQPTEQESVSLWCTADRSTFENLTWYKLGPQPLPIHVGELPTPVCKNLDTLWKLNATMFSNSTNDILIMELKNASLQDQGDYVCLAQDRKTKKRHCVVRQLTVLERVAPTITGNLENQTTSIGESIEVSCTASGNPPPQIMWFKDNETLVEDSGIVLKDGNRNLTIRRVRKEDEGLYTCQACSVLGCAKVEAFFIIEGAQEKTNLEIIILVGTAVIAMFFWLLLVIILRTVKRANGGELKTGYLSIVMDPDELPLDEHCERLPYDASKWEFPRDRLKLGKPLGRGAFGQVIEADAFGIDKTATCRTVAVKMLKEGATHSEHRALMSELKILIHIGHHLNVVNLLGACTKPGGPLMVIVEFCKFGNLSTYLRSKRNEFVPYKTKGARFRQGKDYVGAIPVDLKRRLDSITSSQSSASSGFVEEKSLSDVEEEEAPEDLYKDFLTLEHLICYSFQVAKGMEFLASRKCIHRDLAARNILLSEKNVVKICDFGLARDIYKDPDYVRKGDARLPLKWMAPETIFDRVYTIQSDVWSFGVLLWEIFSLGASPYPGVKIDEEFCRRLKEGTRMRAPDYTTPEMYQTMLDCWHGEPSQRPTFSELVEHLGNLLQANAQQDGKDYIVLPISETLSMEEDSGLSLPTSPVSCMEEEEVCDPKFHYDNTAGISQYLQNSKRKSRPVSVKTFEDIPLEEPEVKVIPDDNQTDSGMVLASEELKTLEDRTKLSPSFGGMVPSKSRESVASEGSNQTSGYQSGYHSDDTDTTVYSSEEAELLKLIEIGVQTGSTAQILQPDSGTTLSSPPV

As usually defined, the IC50 is the concentration needed to halve the response being measured. Molecule `O=C(CN1C(=O)SC(=C2C(=O)Nc3ccccc32)C1=O)Nc1ccc(Cl)cc1` [Compound 14a, N-(4-Chlorophenyl)-2-(2,4-dioxo-5-(2-oxoindolin-3-ylidene)thiazolidin-3-yl)acetamide] returned an IC50 at 24 h in data set [1] of 290 ± 28.3 µM. Besides, the IC50 with MDA-mb-231 (Homo sapiens, MDA-mb-231 cell line, MTT) was determined as 84 ± 7.3 µM; in the data set with A549 (Homo sapiens, A549 cell line, MTT), 170 ± 14.5 µM; with HepG2 (Homo sapiens, HepG2 cell line, MTT) it was 31.5 ± 2.5 µM; at VEGFR-2 (ELISA kit), 0.0915 ± 0.0082 µM; in the data set on Caco-2, 1.5 ± 0.08 µM. For the same molecule, the “Selectivity index (MDA-MB-231)” value in the data set on MDA-mb-231 (SI = Cytotoxicity against Vero cells / Cytotoxicity against MDA-MB-231 cell line) came to 3.375. Also, the “Selectivity index (A549)” value with A549 (SI = Cytotoxicity against Vero cells / Cytotoxicity against A549 cell line) was found to be 1.704. In addition, the “TGF gene expression level” value with TGF is “significant reduction; also recorded: significant down-regulation; also recorded: downregulate”. Besides, the “Bcl-xl gene expression level” value in the data set on Bcl-xl was “non-detectable change”. In addition, the “Inhibition of migration and healing of Caco-2 cells” value with Caco-2 cells (24 h) was “inhibit the migration and healing of Caco-2 cells in a significant manner; also recorded: significantly inhibited the ability of cancer cells to migrate and heal”. In the data set with Caco-2 cells (after 24 h, control scratch width at 0 hr 0.356 mm), the “Width of the scratch” value is 0.293 mm. Besides, the “Selectivity index (HepG2)” value in the data set with HepG2 (SI = Cytotoxicity against Vero cells / Cytotoxicity against HepG2 cell line) turned out to be 9.196. Also, the “Survivin gene expression level” value with Survivin is “significant reduction; also recorded: significant down-regulation; also recorded: downregulate”. In addition, the “HillSlope (best-fit value)” value at VEGFR-2 (setting [3]) is -0.4675. Also, at VEGFR-2 (setting [3]), the “LogIC50 (best-fit value)” value is listed as 1.961 Log (nM). For the same molecule, the selectivity ratio in [2] was 212. The “Bcl-2 gene expression level” value in the data set with Bcl-2 is listed as “significant reduction; also recorded: significant down-regulation; also recorded: downregulate”.
